The text below walks through data of patent publication US9321796B2, “Galactopyranosyl derivatives useful as medicaments” (Universiteit Gent, priority 2012, dated 2016).

Assay [1] deals with T1, TCR / mCD1d-glycolipid complex (Mus musculus, UniProt P11609).
T1 sequence (P11609 19-297): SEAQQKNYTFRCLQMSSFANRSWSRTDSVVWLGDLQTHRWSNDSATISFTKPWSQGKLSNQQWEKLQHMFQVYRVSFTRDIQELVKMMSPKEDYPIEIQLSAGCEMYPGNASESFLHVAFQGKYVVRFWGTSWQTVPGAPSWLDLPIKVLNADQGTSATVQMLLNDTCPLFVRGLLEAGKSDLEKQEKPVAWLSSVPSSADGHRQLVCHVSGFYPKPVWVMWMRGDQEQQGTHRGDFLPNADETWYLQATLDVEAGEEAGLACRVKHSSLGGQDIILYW
T1 sequence (P01887 21-119 partner): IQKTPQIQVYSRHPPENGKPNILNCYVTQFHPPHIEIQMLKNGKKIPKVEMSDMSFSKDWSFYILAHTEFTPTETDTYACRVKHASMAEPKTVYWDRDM
In words: Surface plasmon resonance: TCR binding to mCD1d-glycolipid complexes. Here is the method: SPR studies were conducted using a Biacore 3000 (Biacore). Glycolipids were dissolved at 1 mg/ml in DMSO and before loading were diluted to 0.25 mg/ml with vehicle solution (50 mM Tris-HCl pH 7.0, 4.8 mg/ml sucrose, 0.5 mg/ml deoxycholate and 0.022% Tween-20), heated for 20 minutes at 80° C. After cooling 1 μg of each lipid was incubated with 10 μg enzymatically biotinylated mCD1d overnight at room temperature. In one embodiment, 400-600 response units (RU) of mCD1d-glycolipid complexes were immobilized onto a CA capture chip (Biacore). A reference surface was generated in another flow channel with unloaded mCD1d immobilized at RU of 500. During the association phase, a series of increasing concentrations of TCR (in 10 mM HEPES, 150 mM NaCl, 3.0 mM EDTA, pH 7.4) in duplicate were injected for 80 seconds and the dissociation phase (running buffer only) was monitored over 45 minutes. Experiments were carried out at 25° C. with a flow rate of 30 μl/min and performed at least two to three times, each time with a different batch of TCR preparation. Kinetic parameters were calculated after subtracting the response to mCD1d molecules in the reference channel, using a simple Langmuir 1:1 model in the BIA evaluation software version 4.1. One representative sensorgram for each lipid is shown. […]

Assay [2] concerns the target T2, CD1d (Mus musculus, UniProt P11609).
T2 construct: made in house
T2 sequence (P11609 19-297 limits assumed): T1 sequence (P11609 19-297)
The experiment in a line: Buried surface area between glycolipid and CD1d in crystal structures. The following applies: mCD1d-glycolipid-mTCR crystal structures. The method, then:
First, the ternary mCD1d-lipid-mTCR complexes using the glycolipids 4ClPhC-α-GalCer (3a) and PyrC-α-GalCer (3c) were prepared as described previously for NU-α-GalCer, and purified by size exclusion chromatography (SEC) using Superdex S200 10/300 GL (GE Healthcare). Both mCD1d-4ClPhC-α-GalCer-mTCR and mCD1d-PyrC-α-GalCer-mTCR complexes were concentrated to 3.5 mg/ml in SEC buffer (50 mM Hepes, pH 7.5, 150 mM NaCl). Crystals were grown at 22.3° C. by sitting drop vapor diffusion while by mixing 0.5 μl mCD1d-4ClPhC-α-GalCer-mTCR and 0.5 μl precipitate (20% PEG 4000, 0.2 M sodium thiocyanate) or by mixing 1 μl mCD1d-PyrC-α-GalCer-mTCR and […] precipitate (20% PEG 4000, 0.2 M di-ammonium hydrogen citrate), respectively.
Crystals were flash-cooled at 100° K in a mother liquor containing 30% glycerol. […]
The asymmetric unit contains one mCD1d-glycolipid-TCR molecule with estimated solvent content of 57.3% based on a Matthews' coefficient (Vm) of 2.88 A^3/Da for 4ClPhC-α-GalCer and 56.9% (VM) of 2.86 A^3/Da for PyrC-α-GalCer. Crystal structures were determined by molecular replacement using MOLREP as part of the CCP4 suite. […]

In assay [3] the test system is solid tumours. The following applies: Phase I study; cited from earlier work.

As usually defined, the Kd is a measure of binding affinity in units of concentration. In the case of `CCCCCCCCCCCCCCCCCCCCCCCCCC(=O)N[C@@H](CO[C@H]1O[C@H](CO)[C@H](O)[C@H](O)[C@H]1O)[C@H](O)[C@H](O)CCCCCCCCCCCCCC` [α-GalCer, α-galactosyl ceramide], in assay [1], binding was characterised by a dissociation constant (Kd) of 11 nM. The “buried surface area between glycolipid and CD1d” value in assay [2] is 1,027 Å^2. Further, in assay [3], the “treatment of solid tumours” value is “ineffective”.
